Measurements reported in a melting point compilation (Tetko et al.; mined from patent text by program, amines drawn as free bases though some values may be those of a salt).

SMILES | melting point [°C]
C#CCn1nc(-c2ccc(S(C)(=O)=O)cc2)c(-c2ccc(F)cc2)c1C(F)(F)F | 158 to 160
CC(C)Cc1csc(NC(=O)OC(C)(C)C)c1C(=O)O | 154 to 155
O=c1cc(-c2ccccc2F)oc2ccccc12 | 98 to 100
COc1ccc(-n2cccc2-c2ccc(S(C)(=O)=O)cc2)cc1F | 116 to 118
CN(C)c1nc(CSCCNC2=NS(=O)N=C2N)cs1 (configuration not stated) | 116 to 122
Nc1c(S(=O)(=O)C(F)(F)F)c(-c2ncon2)nn1-c1c(Cl)cc(C(F)(F)F)cc1Cl | 205 to 208
CCOC(=O)c1cn(C)c2c(OCC)csc2c1=O | 198 to 200
CN(CCN(C)c1ccc([N+](=O)[O-])cc1)c1ccncc1 | 126 to 127
O=C(Nc1ccc(F)c(F)c1)C12CC3CC(CC(C3)C1)C2 | 168 to 170
NC(=O)C1(c2cccc(Br)c2)CCOCC1 | 245 to 247
Cc1cc(Cl)c(Cl)cc1C(=O)O | 176 to 178
CNC(=O)CC1CN=C(c2cc3cc(Oc4ccc(S(C)(=O)=O)nc4)cc(OC4CCOCC4)c3[nH]2)S1 (configuration not stated) | 143 to 144
O=C(O)CCc1cccc(OCc2nc(-c3ccccc3)c(-c3ccccc3)o2)c1 | 118 to 120
Oc1ccc(Cc2ccccc2)c2c1NCCC2 | 135 to 136
COc1ccc(CN2C(C(=O)Nc3ccccn3)=C(O)c3sc4ccccc4c3S2(=O)=O)cc1 | 188 to 190
O=C(Nc1ccnn1-c1c(Cl)cc(C(F)(F)F)c(Cl)c1Cl)C(F)(F)F | 140 to 145
CNC(=O)c1cc(N[C@@H]2c3ccccc3C[C@H]2O)c2nc(C)c(C)n2c1 (relative stereo) | 143 to 144
CC(=O)OC1C(CO)OC(n2cnc3c(N)ncnc32)C1O (configuration not stated) | 195 to 201
COc1cc(OCc2nccs2)ccc1/C=C/c1cc(/C=C/c2ccc3cc[nH]c3c2)n[nH]1 | 229 to 237

SMILES | melting point [°C]
CC(C)c1ccc(-c2ccnc(-c3cccc(C(=O)O)c3)c2)cc1 | 233 to 234
C=C(C)C(=O)OCCCCCCOc1ccc(C=Cc2ccc([N+](=O)[O-])cc2)cc1 | 90 to 95
CCOC(=O)c1cccc2nc(S)n(Cc3ccc(-c4ccccc4C#N)cc3)c12 | 225 to 227
Brc1cnc(Sc2ncccn2)nc1 | 178 to 180
CC(C)(C)c1ccc(Nc2nnc(Cc3cnc(O)c(-c4ccco4)c3)c3ccccc23)cc1 | 180 to 182
COc1c(N)cc(-c2c3ccccc3c(Br)c3sc(C)c(C)c23)cc1Br | 198 to 200
CCN(CC)C(=O)n1nc(NC)n(C)c1=O | 83 to 85
COc1ccc(CS[C@H]2C[C@@H](C(N)=O)N(CCF)C2)cc1 | 122 to 123
COc1cc(O)c2c(c1)OC(C(C)(C)C=C1N=C(c3ccccc3)OC1=O)CC2=O (configuration not stated) | 147 to 149
C[C@@H]1[C@H](c2ccccc2)OC(=O)N1C(=O)CC1c2ccccc2C=Cc2ccccc21 | 172 to 173
N#Cc1ccc(-c2ccc(-c3ccc(-c4ccc(C#N)cc4)o3)o2)cc1 | 298 to 299
C=C(Br)Cc1cc2c(C)cc(=O)oc2c(C)c1O | 154 to 161
C#CC1(O)CCC2C3CCC4CC=CCC4C3CCC21C (configuration not stated) | 108 to 109
ON=C1CCCc2cc(OCCn3ccnc3)ccc21 | 177 to 179
COC(=O)CCOc1ccc(CNC(=O)[C@@H]2Cc3ccccc3N2S(=O)(=O)c2ccc(C(C)(C)C)cc2)cc1 | 50 to 52
Cc1scc2c1N(C(=O)NCCN1CCC(CCCCN3CCCCC3)CC1)c1ccccc1NC2=O | 186 to 187
Cc1cc(F)ccc1NC(=O)c1cccc(S(=O)(=O)N(C)c2ccc(Br)cc2)c1 | 163 to 165
CC12CCC3C(CCC4CC(=O)CCC43C)C1CCC2C#N (configuration not stated) | 150 to 152

The remaining lines, values ahead:

melting point [°C] | SMILES
89 to 90 | CCOC(=O)c1oc2ccccc2c1N=CN(C)C
49 to 55 | OCCNCCOCCOCCNCCO
129 to 131 | CC1(C2CCCC2)Cc2cc(OCC(=O)O)c(Cl)c(Cl)c2C1O (configuration not stated)
121 to 122 | CCCCC/C(=C\C=C\C(=S)NCCCCc1cccnc1)c1ccc(OC)cc1
> 300 | CNC(=O)c1[nH]c(=O)[nH]c1C
70 to 73 | COc1ccc(C=CC(=O)OCCC(C)CCc2ccccc2)c(O)c1 (configuration not stated)
95 to 98 | Cc1ccc2ccc(C(=O)NCc3ccc(Cl)cc3)c(O)c2n1
104 to 107 | NC1=NN(c2cccc(C(F)(F)F)c2)CC1
134 to 136 | O=C1CCN(CCCn2c(=O)[nH]c3ccccc32)CC1
90 to 92 | CCC(C)CNC(=O)C(CC(O)C(CC(C)C)NC(=O)C(Cc1cscn1)NC(=O)C(Cc1cccc2ccccc12)NC(=O)OC(C)(C)C)C(C)(C)O (mixture of isomers)
141 to 143 | Cn1ncnc1-c1ccc(C(=O)C(=O)N2Cc3cccn3Cc3ccccc32)c(Cl)c1
242 to 244 | O=C(O)C(c1ccccc1)n1c(=O)c(=O)[nH]c2ccccc21 (configuration not stated)
61 to 63 | O=C(CCCCCCOc1ccccc1)c1nnc(COCc2ccccc2)o1
70 to 80 | CCN(C(=O)c1ccccc1)C(=NC(=O)c1ccccc1)NCc1ccc(S(N)(=O)=O)cc1
253 to 254 | Cn1c2ccc(Cl)cc2c2c(CBr)nn(-c3ccccc3)c(=O)c21
112 to 125 | CCC1(CC)COC(c2cccc(NC(=O)NC)c2)OC1
136 to 139 | CS(=O)(=O)Nc1cccc(Nc2nc(Oc3ccc(F)cc3)c3nc[nH]c3n2)c1
271 to 272 | O=C(O)c1ccc2[nH]c3ccccc3c2c1

melting point [°C] | SMILES
229 to 234 | CC(C)Oc1ccc(C(=O)n2nc(Nc3ccc(O)cc3)nc2N)cc1
175 to 177 | CCCOc1ccccc1-c1cc(C)c(C(=O)O)c(=O)[nH]1
107 to 108 | Cc1c(C)c2c(c(C)c1Br)C(c1ccccc1)CO2 (configuration not stated)
104 to 106 | CCCC1=CC(NC)=Nc2ccc(Cl)cc2C(c2ccccc2)=[N+]1[O-]
240 to 242 | Cc1cc2oc(=O)c(NC(N)=O)c(-c3ccccc3C)c2cc1Cl
155 to 156 | CS(=O)(=O)c1ccc(-n2nccc2-c2ccc(-c3ccco3)cc2)cc1F
145 to 146 | CC(=O)NNC(=O)c1ccc2occc2c1
170 | COC(=O)c1cn2c(C(F)(F)F)nnc2c2ccccc12
82 to 83 | COc1ccc(C2CC(=O)c3c(C)coc3C2)cc1 (configuration not stated)
147 | O=C(Cl)c1cc2n(c1)CCc1ccccc1C2=O
169 | O=C(NCCO)c1cccc(-c2cccc3nc(C(O)c4cccc(C(F)(F)F)c4)cn23)c1 (configuration not stated)
148 to 150 | CCc1cccc2c(/C=C(\C)C(=O)O)cc(OC)c(OC(C)=O)c12
277 to 284 | COc1cc(OC)nc(Oc2cc(C)nc(-c3ccccc3)c2C(=O)O)n1
142 to 145 | OC1(c2ccc(Cl)cc2)CCN(CCCc2noc3cc(F)ccc23)CC1
153 to 154 | COc1cc2c(cc1OC)CN(CC(O)CN1CCC(c3noc4cc(F)ccc34)CC1)CC2 (configuration not stated)
55 to 56 | CCOC(=O)NC(C)COc1ccc(Oc2ccc(F)cc2)cc1 (configuration not stated)
> 300 | O=C(O)c1ccc(-c2cc3cccnc3c(-c3cccc4nonc34)n2)cc1
